These results are taken from patent publication US20130060022A1, “Compounds useful for treating neurodegenerative disorders” (priority 2011, published 2013).

The structures appear in SMILES notation. Where two headings read alike, the source gives them in different places. Where only a bound is given, the exact number is not on record here.

Type in all cases: cell-based
Conditions in all cases: Homo sapiens, 5 hours at 37° C., 1% DMSO

One assay relates to Aβ-42. The assay is described as follows: Aβ-42 level in conditioned media of 2B7 cells (MSD 3-PLEX ELISA). On the procedure: (§1) Assays were conducted to determine the ability of a Compound of Formula I to modulate […], and Aβ-38.
(§2) Human (6E10) Ab 3-PLEX ELISA kits were purchased from Meso Scale Discovery Labs, 9328 Gaither Road, Gaithersburg, Md. 20877 (Catalog Number K15148E-3). Plates with capture antibodies were blocked for 1-2 hours at room temperature with 150 μL of the manufactures blocking reagent.
(§3) Cultured 2B7 cells in 96 well plate with 250 μL of media per well until confluent;
(§4) Prepared serial dilutions of compounds in DMSO at 100× the final desired concentration;
(§5) Washed wells with 2B7 cells 1× with 250 μL of media;
(§6) Diluted DMSO stocks 1:100 into media:
(§7) Added 250 μL of media containing compounds (1% DMSO) to wells with 2B7 cells for 5 hours at 37° C.
(§8) Diluted conditioned media: 1 part media with 1% DMSO and 1 part blocking buffer;
(§9) 150 μL of the 250 μL of conditioned media were used.
(§10) Seven point standard curve samples were prepared that contained Aβ-42, Aβ-40, and Aβ-38. The highest concentration of Aβ-42 and Aβ-38 was […] and the highest concentration of Aβ-40 was 10,000 pg/mL. Subsequent serial dilutions were 1:3 and the final composition of each sample was 1 part blocking buffer and 1 part cell medium containing 1% DMSO.
(§11) Blocked plates are washed 5× with MSD wash buffer with a plate washer;
(§12) 25 μL of detection antibody and blocker G reagent in MSD blocking solution was added;
(§13) 25 μL of samples (1 part conditioned media containing 1% DMSO and 1 part MSD blocking buffer) were then added;
(§14) Plates were incubated overnight at 4 degrees C. or 2 hours at room temperature.
(§15) Washed wells 5× with MSD wash buffer;
(§16) Added 150 μL 2×MSD read buffer;
(§17) Aβ peptide levels for each peptide were calculated from the standard curve using the MSD software provided with the MSD 2400 Imager. Percent vehicle values for each compound dosage were then calculated and fit to a 4 parameter curve generating IC50 values.

The next assay deals with Aβ-38. The assay is described as follows: Aβ-38 level in conditioned media of 2B7 cells (MSD 3-PLEX ELISA). On the procedure: as §1, §2, §3, §4, §5, §6, §7, §8, §9, §10, §11, §12, §13, §14, §15, §16, §17
In general terms: In an ELISA, binding on a coated surface is turned into a signal by an enzyme label.

A further assay has as its system Aβ-40. The experiment in a line: Aβ-40 level in conditioned media of 2B7 cells (MSD 3-PLEX ELISA). On the procedure: as §1, §2, §3, §4, §5, §6, §7, §8, §9, §10, §11, §12, §13, §14, §15, §16, §17
Where [1] appears, read: inflection of dose-response curve, read-out: Aβ 42 DR IC50 Inflection.
[2] abbreviates: inflection of dose-response curve, read-out: Aβ 40 DR IC50 Inflection.
Setting [3] is: inflection of dose-response curve, read-out: Aβ 38 DR IC50 Inflection.

Regarding `CC(C)[C@@H](OC(=O)N1CCC1)[C@H]1C[C@@H](C)[C@H]2[C@H](O1)[C@H](O)[C@@]1(C)[C@@H]3CC[C@H]4C(C)(C)[C@@H](OC(=O)N5CC[C@H](C(=O)O)C5)CC[C@@]45C[C@@]35CC[C@]21C` [Compound I-1], the IC50 is 1000 to 5000 nM in the assay on Aβ-42 (setting [1]); 1000 to 5000 nM with Aβ-42 (read-out: Aβ 42 IC50); 1000 to 5000 nM with Aβ-38 (read-out: Aβ 38 IC50); over 5000 nM in the assay with Aβ-40 (setting [2]); over 5000 nM in the assay with Aβ-40 (read-out: Aβ 40 IC50).
With `CC(C)[C@@H](OC(=O)N1CCC1)[C@H]1C[C@@H](C)[C@H]2[C@H](O1)[C@H](O)[C@@]1(C)[C@@H]3CC[C@H]4C(C)(C)[C@@H](OC(=O)N[C@H]5CCNC5=O)CC[C@@]45C[C@@]35CC[C@]21C` [Compound I-2], the 50% inhibitory concentration (IC50) was 100 to 500 nM in the assay with Aβ-42 (read-out: Aβ 42 IC50), 501 to 1000 nM in the assay with Aβ-38 (read-out: Aβ 38 IC50) and over 5000 nM with Aβ-40 (read-out: Aβ 40 IC50).
Consider `CC(C)[C@@H](OC(=O)N1CCC1)[C@H]1C[C@@H](C)[C@H]2[C@H](O1)[C@H](O)[C@@]1(C)[C@@H]3CC[C@H]4C(C)(C)[C@@H](OC(=O)N[C@@H]5CCCNC5=O)CC[C@@]45C[C@@]35CC[C@]21C` [Compound I-3], for which the IC50 was 100 to 500 nM in the assay with Aβ-42 (setting [1]); 100 to 500 nM in the assay on Aβ-42 (read-out: Aβ 42 IC50); 1000 to 5000 nM in the assay with Aβ-38 (setting [3]); 501 to 1000 nM with Aβ-38 (read-out: Aβ 38 IC50); over 5000 nM in the assay on Aβ-40 (setting [2]); over 5000 nM in the assay on Aβ-40 (read-out: Aβ 40 IC50).
For `CC(C)[C@@H](OC(=O)N1CCC1)[C@H]1C[C@@H](C)[C@H]2[C@H](O1)[C@H](O)[C@@]1(C)[C@@H]3CC[C@H]4C(C)(C)[C@@H](OC(=O)N[C@@H](C)C(=O)O)CC[C@@]45C[C@@]35CC[C@]21C` [Compound I-4], the IC50 in the assay with Aβ-42 (read-out: Aβ 42 IC50) is 501 to 1000 nM; in the assay on Aβ-38 (setting [3]), 501 to 1000 nM; in the assay on Aβ-38 (read-out: Aβ 38 IC50), 1000 to 5000 nM; in the assay with Aβ-40 (read-out: Aβ 40 IC50), over 5000 nM.
As to `CC(C)[C@@H](OC(=O)N1CCC1)[C@H]1C[C@@H](C)[C@H]2[C@H](O1)[C@H](O)[C@@]1(C)[C@@H]3CC[C@H]4C(C)(C)[C@@H](OC(=O)N[C@@H]5CCNC5=O)CC[C@@]45C[C@@]35CC[C@]21C` [Compound I-5], the IC50 with Aβ-42 (read-out: Aβ 42 IC50) is 100 to 500 nM; with Aβ-38 (setting [3]), 100 to 500 nM; in the assay with Aβ-38 (read-out: Aβ 38 IC50) it was 100 to 500 nM; in the assay with Aβ-40 (setting [2]) it was over 5000 nM; in the assay on Aβ-40 (read-out: Aβ 40 IC50), over 5000 nM.
`CC(C)[C@@H](OC(=O)N1CCC1)[C@H]1C[C@@H](C)[C@H]2[C@H](O1)[C@H](O)[C@@]1(C)[C@@H]3CC[C@H]4C(C)(C)[C@@H](OC(=O)N[C@H]5CCCNC5=O)CC[C@@]45C[C@@]35CC[C@]21C` [Compound I-6]: the IC50 with Aβ-42 (read-out: Aβ 42 IC50) is 100 to 500 nM; in the assay on Aβ-38 (setting [3]) it was 100 to 500 nM; with Aβ-38 (read-out: Aβ 38 IC50), 100 to 500 nM; with Aβ-40 (setting [2]) it was over 5000 nM; in the assay with Aβ-40 (read-out: Aβ 40 IC50) it was over 5000 nM.
Consider `CC(C)[C@@H](OC(=O)N1CCC1)[C@H]1C[C@@H](C)[C@H]2[C@H](O1)[C@H](O)[C@@]1(C)[C@@H]3CC[C@H]4C(C)(C)[C@@H](OC(=O)NCCC(=O)O)CC[C@@]45C[C@@]35CC[C@]21C` [Compound I-8], for which the IC50 was 501 to 1000 nM in the assay with Aβ-42 (setting [1]); 501 to 1000 nM with Aβ-42 (read-out: Aβ 42 IC50); 501 to 1000 nM with Aβ-38 (setting [3]); 501 to 1000 nM with Aβ-38 (read-out: Aβ 38 IC50); over 5000 nM with Aβ-40 (read-out: Aβ 40 IC50).
`CC(C)[C@@H](OC(=O)N1CCC1)[C@H]1C[C@@H](C)[C@H]2[C@H](O1)[C@H](O)[C@@]1(C)[C@@H]3CC[C@H]4C(C)(C)[C@@H](OC(=O)N5CC(CNS(=O)(=O)C(F)(F)F)C5)CC[C@@]45C[C@@]35CC[C@]21C` [Compound I-9]: the IC50 in the assay with Aβ-42 (read-out: Aβ 42 IC50) and with Aβ-38 (read-out: Aβ 38 IC50) was 1000 to 5000 nM throughout.
Consider `CC(C)[C@@H](OC(=O)N1CCC1)[C@H]1C[C@@H](C)[C@H]2[C@H](O1)[C@H](O)[C@@]1(C)[C@@H]3CC[C@H]4C(C)(C)[C@@H](OC(=O)N5CC[C@@H](C(=O)O)C5)CC[C@@]45C[C@@]35CC[C@]21C` [Compound I-10], for which the half-maximal inhibitory concentration (IC50) in the assay with Aβ-42 (read-out: Aβ 42 IC50) was 1000 to 5000 nM; in the assay with Aβ-38 (read-out: Aβ 38 IC50) it was 1000 to 5000 nM; with Aβ-40 (read-out: Aβ 40 IC50), over 5000 nM.
Regarding `CC(C)[C@@H](OC(=O)N1CCC1)[C@H]1C[C@@H](C)[C@H]2[C@H](O1)[C@H](O)[C@@]1(C)[C@@H]3CC[C@H]4C(C)(C)[C@@H](OC(=O)N(C)C5CN(C)C5)CC[C@@]45C[C@@]35CC[C@]21C` [Compound I-11], the concentration for half-maximal inhibition (IC50) was under 100 nM with Aβ-42 (setting [1]); under 100 nM with Aβ-42 (read-out: Aβ 42 IC50); 100 to 500 nM in the assay with Aβ-38 (setting [3]); 100 to 500 nM in the assay on Aβ-38 (read-out: Aβ 38 IC50); over 5000 nM in the assay with Aβ-40 (setting [2]); over 5000 nM in the assay with Aβ-40 (read-out: Aβ 40 IC50).
Regarding `COCCN1CCN(C(=O)O[C@H]2CC[C@]34C[C@]35CC[C@]3(C)[C@@H]6[C@H](O[C@@H]([C@H](OC(=O)N7CCC7)C(C)C)C[C@H]6C)[C@H](O)[C@@]3(C)[C@@H]5CC[C@H]4C2(C)C)CC1` [Compound I-12], the IC50 in the assay with Aβ-42 (read-out: Aβ 42 IC50) is 501 to 1000 nM; with Aβ-38 (read-out: Aβ 38 IC50) it was 1000 to 5000 nM; with Aβ-40 (read-out: Aβ 40 IC50), over 5000 nM.
As to `CC(C)[C@@H](OC(=O)N1CCC1)[C@H]1C[C@@H](C)[C@H]2[C@H](O1)[C@H](O)[C@@]1(C)[C@@H]3CC[C@H]4C(C)(C)[C@@H](OC(=O)N5CCNC(C(F)(F)F)C5)CC[C@@]45C[C@@]35CC[C@]21C` (stereo partly drawn) [Compound I-13], the 50% inhibitory concentration (IC50) in the assay on Aβ-42 (read-out: Aβ 42 IC50) and with Aβ-38 (read-out: Aβ 38 IC50) was 1000 to 5000 nM each time.
For `CC(C)[C@@H](OC(=O)N1CCC1)[C@H]1C[C@@H](C)[C@H]2[C@H](O1)[C@H](O)[C@@]1(C)[C@@H]3CC[C@H]4C(C)(C)[C@@H](OC(=O)N5CCN(C6COC6)CC5)CC[C@@]45C[C@@]35CC[C@]21C` [Compound I-14], the half-inhibitory concentration (IC50) with Aβ-42 (read-out: Aβ 42 IC50) and in the assay with Aβ-38 (read-out: Aβ 38 IC50) was 501 to 1000 nM each time.
Turning to `CC(C)[C@@H](OC(=O)N1CCC1)[C@H]1C[C@@H](C)[C@H]2[C@H](O1)[C@H](O)[C@@]1(C)[C@@H]3CC[C@H]4C(C)(C)[C@@H](OC(=O)N(C)CC(=O)O)CC[C@@]45C[C@@]35CC[C@]21C` [Compound I-15], the half-maximal inhibitory concentration (IC50) is 100 to 500 nM in the assay with Aβ-42 (read-out: Aβ 42 IC50), 501 to 1000 nM in the assay on Aβ-38 (read-out: Aβ 38 IC50) and over 5000 nM with Aβ-40 (read-out: Aβ 40 IC50).

Broadly, the IC50 is the concentration at which inhibition is half-maximal.
